Measurements as given in ChEMBL document CHEMBL6096682, “Discovery of D-Ring-Contracted Artemisinin as a Potent Hydrophobic Tag for Targeted Protein Degradation” (J Med Chem, 2025).
Active and inactive are the calls of the source. No cut-off for these calls is given here.

Tests used:
[1] = target: T1, Estrogen receptor (Homo sapiens) (UniProt P03372); experiment: (§1) HyT degrader activity at ER-alpha in human MCF7 cells assessed as induction of ER-alpha degradation by measuring decrease in ER-alpha level at 10 uM pretreated with 26S proteasome inhibitor, MG-132 for 2 hrs followed by incubation with compound for 12 hrs by immunoblot analysis; assay type: cell-based
T1 sequence (whole entry): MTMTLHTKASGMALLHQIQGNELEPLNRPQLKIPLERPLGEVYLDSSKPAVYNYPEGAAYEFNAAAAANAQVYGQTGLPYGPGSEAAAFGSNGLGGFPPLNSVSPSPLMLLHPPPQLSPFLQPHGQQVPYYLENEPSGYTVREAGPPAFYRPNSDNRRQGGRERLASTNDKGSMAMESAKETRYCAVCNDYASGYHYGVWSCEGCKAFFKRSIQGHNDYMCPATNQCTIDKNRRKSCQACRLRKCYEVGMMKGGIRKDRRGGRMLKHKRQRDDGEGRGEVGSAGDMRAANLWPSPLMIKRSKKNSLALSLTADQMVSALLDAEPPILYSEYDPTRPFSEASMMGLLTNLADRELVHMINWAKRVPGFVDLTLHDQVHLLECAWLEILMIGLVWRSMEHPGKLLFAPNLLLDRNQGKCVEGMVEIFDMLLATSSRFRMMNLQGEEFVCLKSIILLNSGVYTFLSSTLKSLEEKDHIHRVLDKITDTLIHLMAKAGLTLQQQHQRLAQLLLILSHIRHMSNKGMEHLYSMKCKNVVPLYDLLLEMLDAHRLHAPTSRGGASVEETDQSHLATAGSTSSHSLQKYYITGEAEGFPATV

[2] = Toxicity in Balb/c mouse xenografted with human MCF7 cells assessed as effect on lymphocytes count at 5 to 10 mg/kg, iv measured after 24 hrs; assay type: organism-based; conditions: in vivo, dose 5-10 mg/kg
MCF7 [3] = experiment: Antiproliferative activity against human MCF7 cells overexpressing ER-alpha Y537S mutant assessed as reduction in cell viability incubated for 48 hrs by MTT assay relative to control; assay type: functional
[4] = Toxicity in Balb/c mouse xenografted with human MCF7 cells assessed as effect on heart morphological changes at 5 to 10 mg/kg, iv measured after 24 hrs by Hematoxylin-Eosin staining based analysis; assay type: organism-based; conditions: in vivo, dose 5-10 mg/kg
[5] = Toxicity in Balb/c mouse xenografted with human MCF7 cells assessed as effect on white blood cells count at 5 to 10 mg/kg, iv measured after 24 hrs; assay type: organism-based; conditions: in vivo, dose 5-10 mg/kg
[6] = target: T1, Estrogen receptor (Homo sapiens); experiment: HyT degrader activity at ER-alpha in human MCF7 cells assessed as induction of ER-alpha degradation by measuring decrease in ER-alpha level at 10 uM incubated for 72 hrs by western blot analysis; assay type: cell-based
MCF7 [7] = experiment: Antiproliferative activity against human MCF7 cells overexpressing ER-alpha Y537S mutant assessed as reduction in cell viability incubated for 48 hrs by MTT assay; assay type: functional, cell-based; conditions: MCF7, 48 h
[8] = target: T1, Estrogen receptor (Homo sapiens); experiment: HyT degrader activity at ER-alpha in human MCF7 cells assessed as induction of ER-alpha degradation by measuring decrease in ER-alpha level at 10 uM pretreated with HSP90 inhibitor, 17-AAG for 2 hrs followed by incubation with compound for 12 hrs by immunoblot analysis; assay type: cell-based
[9] = Toxicity in Balb/c mouse xenografted with human MCF7 cells assessed as effect on spleen morphological changes at 5 to 10 mg/kg, iv measured after 24 hrs by Hematoxylin-Eosin staining based analysis; assay type: organism-based; conditions: in vivo, dose 5-10 mg/kg
[10] = target: T1, Estrogen receptor (Homo sapiens); experiment: as §1, with “MG-132 and NAE inhibitor, MLN4924” for “MG-132”, “for 6” for “for 2”, “for 24” for “for 12”; assay type: cell-based
[11] = Nephrotoxicity in Balb/c mouse xenografted with human MCF7 cells assessed as effect on creatinine level in serum at 5 to 10 mg/kg, iv measured after 24 hrs; assay type: toxicity, organism-based; conditions: in vivo, dose 5-10 mg/kg
MCF7 [12] = experiment: Antitumor activity against human MCF7 cells xenografted in Balb/c mouse assessed as tumor tissue damage at 10 mg/kg, iv administered every 3 days and measured on day 21 by Hematoxylin-Eosin staining based analysis; assay type: functional, organism-based; conditions: time 21.0 day
[13] = Toxicity in Balb/c mouse xenografted with human MCF7 cells assessed as effect on liver morphological changes at 5 to 10 mg/kg, iv measured after 24 hrs by Hematoxylin-Eosin staining based analysis; assay type: organism-based; conditions: in vivo, dose 5-10 mg/kg
[14] = target: T1, Estrogen receptor (Homo sapiens); experiment: HyT degrader activity at ER-alpha in human T47D cells assessed as induction of ER-alpha degradation by measuring downregulation of ER-alpha level at 1 to 5 uM incubated for 24 hrs by immunoblot analysis; assay type: cell-based; conditions: dose 1-5 µM
Mus musculus = experiment: In vivo induction of ER-alpha degradation in Balb/c mouse xenografted with human MCF7 cells assessed as decrease in ER-alpha expression in tumor at 5 to 10 mg/kg, iv administered every 3 days and measured on day 21 by immunofluorescence analysis; assay type: functional, organism-based; conditions: dose 5-10 mg/kg, time 21.0 day
[15] = Toxicity in Balb/c mouse xenografted with human MCF7 cells assessed as effect on hemoglobin content at 5 to 10 mg/kg, iv measured after 24 hrs; assay type: organism-based; conditions: in vivo, dose 5-10 mg/kg
MCF7 [16] = experiment: Antitumor activity against human MCF7 cells xenografted in Balb/c mouse assessed as inhibition of tumor growth at 5 mg/kg, iv administered every 3 days and measured for 21 days; assay type: functional; conditions: MCF7, 504 h, time 21 day, read-out: TGI
[17] = Toxicity in Balb/c mouse xenografted with human MCF7 cells assessed as effect on red blood cells count at 5 to 10 mg/kg, iv measured after 24 hrs; assay type: organism-based; conditions: in vivo, dose 5-10 mg/kg
[18] = Toxicity in Balb/c mouse xenografted with human MCF7 cells assessed as effect on platelets count at 5 to 10 mg/kg, iv measured after 24 hrs; assay type: organism-based; conditions: in vivo, dose 5-10 mg/kg
MCF7 [19] = experiment: Antitumor activity against human MCF7 cells xenografted in Balb/c mouse assessed as reduction in tumor weight at 5 to 10 mg/kg, iv administered every 3 days and measured on day 21; assay type: functional, organism-based; conditions: dose 5-10 mg/kg, time 21.0 day
[20] = target: T1, Estrogen receptor (Homo sapiens); experiment: HyT degrader activity at ER-alpha in human MCF7 cells assessed as induction of ER-alpha degradation by measuring decrease in ER-alpha level at 10 uM incubated for 48 hrs followed by drug wash-out and measured after 48 hrs by western blot analysis; assay type: cell-based
[21] = target: T1, Estrogen receptor (Homo sapiens); experiment: HyT degrader activity at ER-alpha in human MCF7 cells assessed as induction of ER-alpha degradation by measuring decrease in ER-alpha level at 10 uM incubated for 48 hrs by western blot analysis; assay type: cell-based; parameters: scale not given: the % may be the effect or the level left
[22] = target: T1, Estrogen receptor (Homo sapiens); experiment: HyT degrader activity at ER-alpha in human MCF7 cells assessed as induction of ER-alpha degradation by measuring residual ER-alpha level at 10 uM pretreated with HSP70 inhibitor, VER-155008 and HSP90 inhibitor, 17-AAG for 2 hrs followed by incubation with compound for 12 hrs by immunoblot analysis; assay type: cell-based
MCF7 [23] = experiment: Antiproliferative activity against human MCF7 cells assessed as reduction in cell viability incubated for 48 hrs by MTT assay; assay type: functional, cell-based; conditions: MCF7, 48 h
[24] = Toxicity in Balb/c mouse xenografted with human MCF7 cells assessed as changes in body weight at 5 to 10 mg/kg, iv administered every 3 days and measured for 21 days; assay type: organism-based; conditions: in vivo, 504 h, dose 5-10 mg/kg, time 21 day
MCF7 [25] = experiment: Antitumor activity against human MCF7 cells xenografted in Balb/c mouse assessed as tumor volume at 10 mg/kg, iv administered every 3 days and measured for 21 days (reference value: 165.5 mm3); assay type: functional; conditions: time 21 day

Question: Which results are given for `C[C@@H]1CCC2[C@]34OO[C@](C)(CCC13)O[C@@H]4O[C@]2(C)C(=O)NCCCOc1ccc(C(=O)c2c(-c3ccc(O)cc3)sc3cc(O)ccc23)cc1` (stereo partly specified)?
Answer: Activity [1]: inactive; Activity [2]: Non-toxic; inhibition (INH) (MCF7 [3]): 63.6%; Activity [4]: Non-toxic; Activity [5]: Non-toxic; Activity [6]: Active; IC50 (MCF7 [7]): 10.9 µM; Activity [8]: inactive; Activity [9]: Non-toxic; Activity [10]: inactive; Activity [11]: Non-toxic; Activity (MCF7 [12]): Active; Activity [13]: Non-toxic; Activity [14]: Active; Activity (Mus musculus): Active; Activity [15]: Non-toxic; inhibition in vivo at 5 mg/kg (MCF7 [16]): 93.3%; Activity [17]: Non-toxic; Activity [18]: Non-toxic; Activity (MCF7 [19]): Active; Activity [20]: Active; Activity [21]: > 99%; Activity [22]: 91%; IC50 (MCF7 [23]): 2.28 µM; Activity [24]: Non-toxic; Activity (MCF7 [25]): 65.1 mm3
